Test results from patent US20110269811A1, “INHIBITORS OF SEMICARBAZIDE-SENSITIVE AMINE OXIDASE (SSAO) AND VAP-1 MEDIATED ADHESION USEFUL FOR TREATMENT AND PREVENTION OF DISEASES” (priority 2006, published 2011).
Counter-ions that a name gives are not always drawn.

test system: not given; test: not given; conditions: not given

First: NC/C(=C\F)CCc1cccc(F)c1.O=C(O)C(F)(F)F
Second: NC/C(=C/F)CCc1cccc(F)c1.O=C(O)C(F)(F)F
The melting point of the first is lower: 47 to 48 °C for the first, 72 to 73 °C for the second.

First: NC/C(=C/F)CCc1cc(F)cc(C(F)(F)F)c1.O=C(O)C(F)(F)F
Second: Cl.NC/C(=C/Cl)CCc1cc(F)cc(C(F)(F)F)c1 [Compound I-51-E, (E)-3-Chloro-2-(3-fluoro-5-trifluoromethylphenylethyl)allylamine hydrochloride]
The melting point of the first is lower: 58 to 59 °C for the first, 96 to 97 °C for the second.

First: COc1ccc(C/C(=C\F)CN)cc1OC.Cl
Second: COc1ccc(C/C(=C/F)CN)cc1OC.Cl
The melting point of the first is lower: 204 to 205 °C for the first, 220 to 221 °C for the second.

First: COc1cccc(CC/C=C(/F)CN)c1.Cl
Second: COc1cccc(CC/C(=C\Cl)CN)c1.Cl [Compound I-49-E, (E)-3-Chloro-2-(3-methoxyphenylethyl)allylamine hydrochloride]
The melting point of the first is higher: 112 to 113 °C for the first, 85 to 87 °C for the second.

`NCC(=CF)Cc1cccc(O)c1` (as salt: citrate) and `NC/C(=C\F)Cc1cccc(Cl)c1` (as salt: hydrochloride) fall in the same range of melting point: 145 to 146 °C for the first, 145 to 146 °C for the second.

First: CSc1cccc(C/C(=C/F)CN)c1 (as salt: hydrochloride)
Second: Cc1cccc(C/C(=C/F)CN)c1 (as salt: hydrochloride) [Compound I-13, (Z)-3-Fluoro-2-(3-methylbenzyl)allylamine hydrochloride]
The melting point of the first is higher: 145 to 146 °C for the first, 118 to 119 °C for the second.

First: Cc1ccc(C/C(=C/F)CN)cc1 (as salt: hydrochloride)
Second: NC/C(=C\F)Cc1ccc(F)cc1 (as salt: hydrochloride)
The melting point of the first is higher: 150 to 151 °C for the first, 139 to 140 °C for the second.

Compared with `NC/C(=C\F)Cc1ccc(-c2ccccc2)cc1` (as salt: hydrochloride), `CS(=O)(=O)c1ccc(C/C(=C/F)CN)cc1` (as salt: trifluoroacetate) is lower in melting point: 219 to 220 °C for the first, 49 to 50 °C for the second.

Compared with `NC/C(=C\F)Cc1cccc(C(F)(F)F)c1` (as salt: hydrochloride), `NC/C(F)=C\Cc1cccc(C(F)(F)F)c1` (as salt: hydrochloride) [II-2, (E)-2-Fluoro-4-(3-trifluoromethylphenyl)-2-butenylamine hydrochloride] is lower in melting point: 161 to 162 °C for the first, 145 to 147 °C for the second.

Compared with `Cc1ccc(C/C(=C/F)CN)cc1F` (as salt: hydrochloride), `Cc1cc(C/C(=C/F)CN)ccc1F` (as salt: hydrochloride) is lower in melting point: 160 to 161 °C for the first, 158 to 159 °C for the second.

Compared with `NC/C(=C\F)Cc1cc(F)cc(Cl)c1` (as salt: hydrochloride), `NC/C(=C\F)Cc1cc(Cl)cc(Cl)c1` (as salt: hydrochloride) is higher in melting point: 158 to 159 °C for the first, 184 to 185 °C for the second.

Compared with `NC/C(=C\F)Cc1ccc(F)cc1F` (as salt: hydrochloride), `NC/C(=C\F)Cc1cc(F)ccc1F` (as salt: hydrochloride) [Compound I-24, (Z)-3-Fluoro-2-(2,5-difluorobenzyl)allylamine hydrochloride] is lower in melting point: 130 to 131 °C for the first, 105 to 106 °C for the second.

Compared with `NC/C(=C\F)Cc1ccc(F)c(F)c1` (as salt: hydrochloride), `NC/C(=C\F)Cc1ccc(F)c(Cl)c1` (as salt: hydrochloride) [Compound I-23, (Z)-3-Fluoro-2-(3-chloro-4-fluorobenzyl)allylamine hydrochloride] is higher in melting point: 141 to 142 °C for the first, 163 to 164 °C for the second.

First: NC/C(=C/Cl)CCc1ccccc1 (as salt: hydrochloride)
Second: Cc1cccc(CC/C(=C/Cl)CN)c1 (as salt: hydrochloride) [Compound I-37, (Z)-3-Chloro-2-(3-methylphenylethyl)allylamine hydrochloride]
The melting point of the first is lower: 97 to 98 °C for the first, 102 to 103 °C for the second.

First: NC/C(=C/Cl)CCc1ccc(C(F)(F)F)cc1 (as salt: hydrochloride)
Second: NC/C(=C\Cl)CCc1ccc(F)cc1 (as salt: trifluoroacetate)
The melting point of the first is higher: 89 to 90 °C for the first, 69 to 70 °C for the second.

First: COc1cc(C/C(=C/F)CN)cc(OC)c1 (as salt: hydrochloride)
Second: COc1cccc(CC/C(=C/Cl)CN)c1 (as salt: hydrochloride) [Compound I-38, (Z)-3-Chloro-2-(3-methoxyphenylethyl)allylamine hydrochloride]
The melting point of the first is higher: 194 to 195 °C for the first, 139 to 140 °C for the second.

Compared with `COCc1cccc(C/C=C(/F)CN)c1` (as salt: hydrochloride), `COc1ccccc1C/C=C(/F)CN.Cl` [II-17-E, (E)-2-Fluoro-4-(2-methoxyphenyl)-2-butenylamine hydrochloride] is lower in melting point: 165 to 166 °C for the first, 133 to 134 °C for the second.

First: COc1ccc(CC/C(=C/Cl)CN)cc1 (as salt: hydrochloride) [Compound I-33, (Z)-3-Chloro-2-(4-methoxyphenylethyl)allylamine hydrochloride]
Second: CCOc1ccc(CC/C(=C/Cl)CN)cc1 (as salt: hydrochloride) [Compound I-34, (Z)-3-Chloro-2-(4-ethoxyphenylethyl)allylamine hydrochloride]
The melting point of the first is lower: 123 to 124 °C for the first, 160 to 162 °C for the second.

Compared with `CCCCOc1ccc(CC/C(=C/Cl)CN)cc1` (as salt: hydrochloride) [Compound I-36, (Z)-3-Chloro-2-(4-n-butoxyphenylethyl)allylamine hydrochloride], `Cc1ccc(CC/C(=C\Cl)CN)cc1.Cl` [Compound I-50-E, (E)-3-Chloro-2-(4-methylphenylethyl)allylamine hydrochloride] is lower in melting point: 133 to 134 °C for the first, 124 to 125 °C for the second.

Compared with `NC/C(=C\Cl)CCc1ccc(Cl)cc1` (as salt: trifluoroacetate), `NC/C(=C/Cl)CCc1ccc(Cl)cc1.O=C(O)C(F)(F)F` [Compound I-43-Z, (E)-3-Chloro-2-(4-chlorophenylethyl)allylamine trifluoroacetate] is lower in melting point: 89 to 90 °C for the first, 68 to 70 °C for the second.

First: NC/C(=C/Cl)CCc1ccc(F)cc1.O=C(O)C(F)(F)F [Compound I-42-Z, (E)-3-Chloro-2-(4-fluorophenylethyl)allylamine trifluoroacetate]
Second: Cc1cccc(CC/C(=C\Cl)CN)c1.Cl [Compound I-48-E, (E)-3-Chloro-2-(3-methylphenylethyl)allylamine hydrochloride]
The melting point of the first is lower: 52 to 53 °C for the first, 95 to 97 °C for the second.

First: Cl.NC/C(F)=C\Cc1cc(C(F)(F)F)cc(C(F)(F)F)c1 [II-12-E, (E)-2-Fluoro-4-(3,5-ditrifluoromethylphenyl)-2-butenylamine hydrochloride]
Second: COc1cccc(C(C)/C=C(/F)CN)c1.Cl (centres unmarked) [II-18-E]
The melting point of the first is higher: 197 to 198 °C for the first, 133 to 134 °C for the second.

With `COc1ccc(C/C(=C/F)CN)cc1F` (as salt: hydrochloride) [Compound I-21, (Z)-3-Fluoro-2-(3-fluoro-4-methoxybenzyl)allylamine hydrochloride] the melting point was 170 °C (dec.).
For `Cc1ccc(CC/C(=C/Cl)CN)cc1.Cl` [Compound I-39-Z, (Z)-3-Chloro-2-(4-methylphenylethyl)allylamine hydrochloride], the melting point was 135 °C (dec.).

biological target: T1, Human SSAO (Homo sapiens, UniProt Q16853); test: In vitro inhibition of SSAO activity, human umbilical cord homogenate, 14C-benzylamine; format: biochemical; parameters: Human SSAO, percent at given concentration: unit of the concentration uncertain; conditions: @7 (unit uncertain)
T1 construct: rat lung or human umbilical cord homogenates were prepared by chopping the freshly removed tissue; from tissue; host or cells: human umbilical cord homogenate (25,000 g supernatant)
T1 sequence (Q16853 1-763): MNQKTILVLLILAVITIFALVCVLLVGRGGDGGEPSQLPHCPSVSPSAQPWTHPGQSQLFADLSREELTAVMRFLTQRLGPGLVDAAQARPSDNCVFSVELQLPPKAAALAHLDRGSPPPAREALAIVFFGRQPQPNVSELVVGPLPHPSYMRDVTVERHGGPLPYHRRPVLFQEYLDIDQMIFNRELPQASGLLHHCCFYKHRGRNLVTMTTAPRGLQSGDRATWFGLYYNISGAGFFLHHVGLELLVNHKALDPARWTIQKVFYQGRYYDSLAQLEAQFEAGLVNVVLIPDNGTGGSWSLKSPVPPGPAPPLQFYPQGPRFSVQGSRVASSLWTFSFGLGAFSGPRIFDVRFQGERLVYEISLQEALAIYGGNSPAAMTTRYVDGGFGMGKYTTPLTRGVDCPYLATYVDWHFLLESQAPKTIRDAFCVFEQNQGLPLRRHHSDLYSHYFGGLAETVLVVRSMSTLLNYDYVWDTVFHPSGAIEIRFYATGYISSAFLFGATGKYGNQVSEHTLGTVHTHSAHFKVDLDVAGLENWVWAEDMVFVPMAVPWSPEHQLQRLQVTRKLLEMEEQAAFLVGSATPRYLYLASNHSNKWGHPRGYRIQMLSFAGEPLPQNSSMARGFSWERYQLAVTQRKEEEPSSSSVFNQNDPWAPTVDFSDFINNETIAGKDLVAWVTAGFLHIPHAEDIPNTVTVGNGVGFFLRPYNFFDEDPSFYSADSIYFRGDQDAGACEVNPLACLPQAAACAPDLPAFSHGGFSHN
Experimental: SSAO activity was measured as described (Lizcano J M. Et al. (1998) Biochem J. 331:69). Briefly, rat lung or human umbilical cord homogenates were prepared by chopping the freshly removed tissue into small pieces and washing them thoroughly in PBS. The tissue was then homogenized 1:10 (w/v) for lung or 1:5 (w/v) for umbilical cord, in 10 mM potassium phosphate buffer (pH 7.8). Homogenates were then centrifuged at 1000 g at 4° C. for 10 min (lung) or 25,000 g for 30 min (umbilical cord); the supernatants were kept frozen until ready to use. Lung or umbilical cord homogenate was preincubated with clorgyline and pargyline at 1 μM to inhibit MAO-A and -B activity, respectively, and SSAO inhibitors were generally present at 1 nM-10 μM. The reaction was initiated by addition of 20 μM ^14C— benzylamine as substrate. The reaction was carried out at 37° C. in a final volume of 400 μL of 100 mM potassium phosphate buffer (pH 7.2) and stopped with 100 μl of 2M citric acid. Radioactively labeled products were extracted into toluene/ethyl acetate (1:1, v/v) containing 0.6% (w/v) 2,5-diphenyloxazole (PPO) before liquid scintillation counting.

For `Cl.NC/C(F)=C\Cc1cc(C(F)(F)F)cc(C(F)(F)F)c1` [II-12-E, (E)-2-Fluoro-4-(3,5-ditrifluoromethylphenyl)-2-butenylamine hydrochloride], the “Human SSAO, percent at given concentration” value (“Human SSAO, percent” below) was 55%@7 mM.

same assay, conditions: @8 (unit uncertain)

In order of falling “Human SSAO, percent” value:
1. NC/C(=C/Cl)CCc1ccc(F)cc1.O=C(O)C(F)(F)F [Compound I-42-Z, (E)-3-Chloro-2-(4-fluorophenylethyl)allylamine trifluoroacetate]  73%@8 mM
2. NCC(=O)CCc1ccc(F)cc1 [IV-1, 1-amino-4-(4-fluorophenyl)butan-2-one]  45%@8 mM

same assay, conditions: @40 (unit uncertain)

In the case of `Cl.NC/C(=C/Cl)CCc1cc(F)cc(C(F)(F)F)c1` [Compound I-51-E, (E)-3-Chloro-2-(3-fluoro-5-trifluoromethylphenylethyl)allylamine hydrochloride], the “Human SSAO, percent” value is reported as 33%@40 mM.

same assay, conditions: human umbilical cord homogenate; read-out: Human SSAO IC50

In order of rising IC50:
1. Cc1ccc(CC/C(=C\Cl)CN)cc1.Cl [Compound I-50-E, (E)-3-Chloro-2-(4-methylphenylethyl)allylamine hydrochloride]  1 µM
2. Cc1ccc(CC/C(=C/Cl)CN)cc1.Cl [Compound I-39-Z, (Z)-3-Chloro-2-(4-methylphenylethyl)allylamine hydrochloride]  1.2 µM
3. NC/C(=C/Cl)CCc1ccc(Cl)cc1.O=C(O)C(F)(F)F [Compound I-43-Z, (E)-3-Chloro-2-(4-chlorophenylethyl)allylamine trifluoroacetate]  1.4 µM
4. NCC(=O)CCc1cc(F)cc(C(F)(F)F)c1 [IV-10, 1-amino-4-(3-fluoro-5-(trifluoromethyl)phenyl)butan-2-one]  1.5 µM
5. COc1ccc(CCC(=O)CN)cc1 [IV-3, 1-amino-4-(4-methoxyphenyl)butan-2-one]  3 µM
6. COc1cccc(CCC(=O)CN)c1 [IV-8, 1-amino-4-(3-methoxyphenyl)butan-2-one]  3.7 µM
7. COc1ccccc1C/C=C(/F)CN.Cl [II-17-E, (E)-2-Fluoro-4-(2-methoxyphenyl)-2-butenylamine hydrochloride]  4.5 µM
8. COc1cccc(CC/C(=C\Cl)CN)c1.Cl [Compound I-49-E, (E)-3-Chloro-2-(3-methoxyphenylethyl)allylamine hydrochloride]  5.5 µM
9. Cc1cccc(CC/C(=C\Cl)CN)c1.Cl [Compound I-48-E, (E)-3-Chloro-2-(3-methylphenylethyl)allylamine hydrochloride]  10 µM
